Source: the supplement of paper PMC10307832

Assays:
Assay in all cases: relative viability (nuclei count vs DMSO), 5 days (fraction); higher = more cells survive
[1] = compound: Cc1nc(NC(=O)N2CCC[C@H]2C(N)=O)sc1-c1ccnc(C(C)(C)C(F)(F)F)c1 [Alpelisib] + C[C@]1(O)C[C@@H](c2nc(-c3ccc4ccc(-c5ccccc5)nc4c3)c3c(N)nccn32)C1 [Linsitinib] (partner 1 µM)
In short: (§1)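 Lung cancer cell lines in 1536-well plates were dosed by pin tool the day after seeding, either with one drug alone or with a fixed anchor-drug dose plus five library-drug doses (not always all listed) in √10 steps. After 5 days, cells were fixed and their nuclei stained in one step (final 0.05% Triton X-100, 1% formaldehyde, 1 ug/ml Hoechst), then counted on 4× images. Relative viability is the nuclei count in treated wells divided by that in vehicle wells. Values are medians of duplicate plates.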

[2] = compound: COc1cccc2cc(-c3nc([C@H]4CC[C@H](C(=O)O)CC4)n4ncnc(N)c34)[nH]c12 [OSI-027] + CS(=O)(=O)CCNCc1ccc(-c2ccc3ncnc(Nc4ccc(OCc5cccc(F)c5)c(Cl)c4)c3c2)o1 [Lapatinib] (partner 2 µM)
In short: as §1

[3] = compound: Cc1nc(NC(=O)N2CCC[C@H]2C(N)=O)sc1-c1ccnc(C(C)(C)C(F)(F)F)c1 [Alpelisib] + CC(C)C[C@H](NC(=O)[C@H](Cc1ccccc1)NC(=O)c1cnccn1)B(O)O [Bortezomib] (partner 0.002 µM)
In short: as §1

[4] = compound: CCCS(=O)(=O)Nc1ccc(F)c(C(=O)c2c[nH]c3ncc(-c4ccc(Cl)cc4)cc23)c1F [Vemurafenib] + CC1(C)CCC(c2ccc(Cl)cc2)=C(CN2CCN(c3ccc(C(=O)NS(=O)(=O)c4ccc(N[C@H](CCN5CCOCC5)CSc5ccccc5)c(S(=O)(=O)C(F)(F)F)c4)cc3)CC2)C1 [Navitoclax] (partner 0.5 µM)
In short: as §1

Cell Line | relative viability ([1]; first compound 0.04 µM) | relative viability ([1]; first compound 0.1265 µM) | relative viability ([1]; first compound 0.4 µM) | relative viability ([1]; first compound 1.265 µM) | relative viability ([1]; first compound 4 µM) | relative viability ([2]; first compound 0.01 µM) | relative viability ([2]; first compound 0.03162 µM) | relative viability ([2]; first compound 0.1 µM) | relative viability ([2]; first compound 0.3162 µM) | relative viability ([2]; first compound 1 µM) | relative viability ([3]; first compound 0.04 µM) | relative viability ([3]; first compound 0.1265 µM) | relative viability ([3]; first compound 0.4 µM) | relative viability ([3]; first compound 1.265 µM) | relative viability ([3]; first compound 4 µM) | relative viability ([4]; first compound 0.03162 µM) | relative viability ([4]; first compound 0.1 µM) | relative viability ([4]; first compound 0.3162 µM) | relative viability ([4]; first compound 1 µM)
NCI-H2085 | 0.874 | 0.905 | 0.852 | 0.731 | 0.853 | 0.7 | 0.799 | 0.565 | 0.506 | 0.434 | 0.982 | 1.08 | 0.816 | 0.927 | 0.842 | 1.05 | 0.972 | 1.23 | 1.09
ABC-1 | 0.716 | 0.695 | 0.86 | 0.847 | 0.709 | 1.33 | 0.991 | 1.04 | 0.97 | 0.553 | 0.312 | 0.295 | 0.268 | 0.363 | 0.266 |  |  |  | 
NCI-H1299 | 0.975 | 0.984 | 1.14 | 0.866 | 0.843 | 1.02 | 1.04 | 1.04 | 1.01 | 0.645 | 1.05 | 1.08 | 1.03 | 1.02 | 0.966 | 1.03 | 1.03 | 0.976 | 1.03
LU99A | 0.501 | 0.477 | 0.548 | 0.427 | 0.311 | 0.834 | 0.921 | 0.789 | 0.309 | 0.218 | 1.07 | 1.12 | 1.14 | 0.874 | 0.614 | 0.714 | 0.752 | 0.869 | 0.796
NCI-H2009 | 1.2 | 1.12 | 1.27 | 1.19 | 1.12 | 0.97 | 0.963 | 0.848 | 0.839 | 0.546 | 1.03 | 0.982 | 1.24 | 0.89 | 0.859 | 1.14 | 1.13 | 1.01 | 1.05
LCLC-97TM1 | 0.167 | 0.167 | 0.192 | 0.157 | 0.16 | 1.31 | 1.18 | 0.598 | 0.376 | 0.222 | 0.682 |  | 0.86 | 0.384 | 0.237 | 0.411 | 0.371 | 0.533 | 0.486
NCI-H1915 | 1.11 | 1.1 | 1.17 | 1.02 | 1.08 | 1.03 | 1.07 | 0.918 | 0.885 | 0.806 | 0.991 | 1.04 | 0.947 | 0.887 | 0.805 | 0.757 | 0.795 | 0.745 | 0.789
EKVX | 0.923 | 0.941 | 1.11 | 0.901 | 0.821 | 0.169 | 0.189 | 0.201 | 0.16 | 0.153 | 1.09 | 1.05 | 1.05 | 0.953 | 1.02 | 0.898 |  | 1.03 | 0.847
A549 | 0.647 |  | 0.577 | 0.5 | 0.445 | 1.1 | 0.878 | 0.764 | 0.497 | 0.314 |  |  |  |  |  | 1.09 | 1.29 | 1.31 | 1.16
NCI-H1650 |  |  |  |  |  | 0.76 | 0.725 | 0.643 | 0.646 | 0.392 | 0.201 | 0.22 | 0.185 | 0.176 | 0.169 | 1.12 |  | 1.18 | 1.15
LK-2 | 0.385 | 0.574 | 0.549 | 0.46 | 0.687 | 0.861 | 0.789 | 0.609 | 0.385 | 0.268 |  |  |  |  |  | 0.736 | 0.963 | 0.753 | 0.529
NCI-H2170 |  |  |  |  |  | 0.268 | 0.283 | 0.257 | 0.27 | 0.254 |  |  |  |  |  | 0.532 | 0.251 | 0.639 | 0.484
SK-MES-1 | 1.13 | 1.04 | 1.22 | 0.939 | 0.99 | 0.481 | 0.435 | 0.371 | 0.316 | 0.253 |  |  |  |  |  | 1.25 | 1.3 | 1.27 | 1.13
LCLC-103H | 1.07 | 1.19 | 1.25 | 0.892 | 0.76 |  |  |  |  |  | 0.819 | 0.964 | 1.03 | 1.05 | 0.831 |  |  |  | 
NCI-H358 | 0.683 | 0.657 | 0.605 | 0.334 | 0.397 | 0.444 | 0.475 | 0.394 | 0.389 | 0.309 |  |  |  |  |  |  |  |  | 
NCI-H1563 | 1.18 | 1.19 | 1.2 | 1.06 | 1.19 | 0.846 | 1.05 | 0.745 | 0.757 | 0.775 | 0.807 | 0.85 | 0.816 | 0.687 | 0.803 |  |  |  | 
NCI-H650 | 0.819 | 0.706 | 0.894 | 0.587 | 0.807 | 0.838 | 0.883 | 0.516 | 0.707 | 0.39 | 0.728 | 0.563 | 0.881 | 0.573 | 0.58 |  |  |  | 
NCI-H661 | 0.58 | 0.573 | 0.613 | 0.439 | 0.458 | 0.509 | 0.519 | 0.453 | 0.334 | 0.279 | 0.668 | 0.933 | 0.833 | 0.593 | 0.651 |  |  |  | 
NCI-H1395 | 1.12 | 1.17 | 1.42 | 0.82 | 1.18 | 0.854 | 0.98 | 0.829 | 0.701 | 0.735 |  |  |  |  |  | 1.37 | 0.999 |  | 1.18
ChaGo-K-1 |  |  |  |  |  |  |  |  |  |  | 0.921 |  | 1.07 | 0.839 | 0.791 | 0.949 | 0.809 |  | 0.958
NCI-H1944 | 0.985 | 1.2 | 1.17 | 0.858 | 0.543 | 0.802 | 0.875 | 0.799 | 0.631 | 0.444 |  |  |  |  |  | 1.06 | 0.846 | 1.05 | 1.04
